Test results from ChEMBL document CHEMBL1155044, “Elucidation of different binding modes of purine nucleosides to human deoxycytidine kinase” (J Med Chem, 2008).

How the values were obtained:
[1] = tested on: Nc1nc(O)c2ncn([C@H]3C[C@H](O)[C@@H](CO)O3)c2n1; conditions: Homo sapiens
[2] = tested on: Nc1nc(O)c2ncn([C@H]3C[C@H](O)[C@@H](CO)O3)c2n1; conditions: Homo sapiens; remark: listed apart in the source
[3] = organism: Homo sapiens
[4] = organism: Homo sapiens; remark: listed apart in the source

Chain of Deoxycytidine kinase (Homo sapiens), P27707 (P27707 whole entry): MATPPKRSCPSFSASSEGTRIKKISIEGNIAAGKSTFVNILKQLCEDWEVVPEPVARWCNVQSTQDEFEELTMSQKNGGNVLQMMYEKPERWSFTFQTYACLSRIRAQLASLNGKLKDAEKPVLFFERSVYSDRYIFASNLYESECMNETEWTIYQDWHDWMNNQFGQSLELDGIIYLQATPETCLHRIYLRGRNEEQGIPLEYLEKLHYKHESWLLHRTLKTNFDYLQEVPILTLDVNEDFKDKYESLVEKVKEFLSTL

Km [3] [µM] | kcat [3] [s⁻¹] | Km [4] [µM] | kcat [4] [s⁻¹] | Molecule | Km [1] [µM] | Km [2] [µM] | kcat [2] [s⁻¹]
– | – | – | – | Deoxycytidine kinase (Homo sapiens), P27707 | 181 | 41 | 0.53
700 | 3.6 | 10.4 | 0.43 | Nc1nc(O)c2ncn([C@H]3C[C@H](O)[C@@H](CO)O3)c2n1 | – | – | –
